Where two headings read alike, the source gives them in different places. Values belong to the compound of their own block, whether it stands above or below them.
Tests used:
[1] = Phase I study Part A, single IV dose, plasma pharmacokinetics; format: in vivo, healthy male and female subjects; settings: for AUC(0-inf) / Cmax / T1/2 / half-life: Geo mean; for Tmax: Median; for pharmacokinetic interaction between ceftaroline fosamil and NXL-104: Phase I Part A, single 600 mg IV doses alone or concomitant
Experimental: (§1) A single center, two-part randomized Phase I Study was conducted to evaluate the safety, tolerability, and pharmacokinetics of single and multiple intravenous doses of ceftaroline fosamil and NXL-104 in healthy male and female subjects, aged 18 through 45 years.
(§2) Part A was an open-label, 3-way crossover, single-dose study to evaluate the safety, tolerability, and pharmacokinetics of ceftaroline and NXL-104 following co-administration of a single intravenous (IV) dose of ceftaroline fosamil and NXL-104 in 12 healthy subjects.
Treatment A: single dose of 600 mg ceftaroline fosamil via IV infusion over one hour.
Treatment B: single dose of 600 mg NXL-104 via IV infusion over one hour.
Treatment C: single dose of 600 mg ceftaroline fosamil and 600 mg NXL-104 via concomitant IV infusion over one hour.
Blood samples were collected at the following times to determine ceftaroline, ceftaroline fosamil, ceftaroline M-1 (metabolite of ceftaroline fosamil), and NXL-104 free-acid plasma concentrations.
Days 1 (Period I), 6 (Period II), and 11 (Period III): in each study period immediately before (within 15 minutes) the start of infusion and after the start of study drug infusion at 20, 40, 60 (immediately before the end of study-drug infusion), 65, and 75 minutes and at 1.5, 2, 3, 4, 6, 8, 12, 18, 24, 36, and 48 hours
The principal parameters describing the pharmacokinetics of ceftaroline, ceftaroline fosamil, ceftaroline M-1 (metabolite of ceftaroline fosamil), and NXL-104 were derived from plasma concentrations using noncompartmental analysis with the software program WinNonlin. Plasma concentrations below the limit of quantification were treated as zero for all PK calculations. The actual sampling times were used in the calculations of PK parameters.
The following PK parameters were determined for ceftaroline, ceftaroline ceftaroline M-1, and NXL-104 free acid: AUC0-t and area under the plasma concentration versus time curve from time zero to infinity (AUC0-∞), Cmax, time of maximum plasma concentration (Tmax), CL, volume of distribution (VA and steady-state volume of distribution (Vss). Minimum plasma concentration (Cmin), accumulation ratio (Rac), and area under the plasma concentration versus time curve during the dosing interval, τ, (AUC0-τ) will be determined following multiple-dose administration.
Because all doses of ceftaroline are expressed in terms of anhydrous, acetate-free ceftaroline fosamil (ceftaroline prodrug, molecular weight=684.68), the following corrections were made to the dose when calculating PK parameters that include doses for ceftaroline (molecular weight=604.70) and ceftaroline M-1 (molecular weight=622.72): Ceftaroline dose=0.883×ceftaroline fosamil dose Ceftaroline M-1 dose=0.909×ceftaroline fosamil dose
The Cmax of ceftaroline, ceftaroline fosamil, ceftaroline M-1, and NXL-104 free acid was determined observationally as the peak concentration for each subject. Tmax was determined as the time corresponding to Cmax.
Area under the plasma concentration versus time curve up to the time corresponding to the last measurable concentration (AUC0-t) was calculated by numeric integration using the linear trapezoidal rule as follows:
Estimates of T1/2 were calculated using the following equation: T1/2=0.693/λz
The AUC0-∞ was calculated according to the following equation: AUC0-∞=AUC0-t+Clast/λz
CL was calculated with the following equation: CL=Doseiv/AUC0-∞
Vz based on the terminal phase was determined as: Vz=Doseiv/λz×AUC0-∞
In part A, PK parameters were compared by analysis of variance using SAS version 9.1.3 on a UNIX operating system. A general linear model with sequence, subject within sequence, treatment, and period as factors was used as the basis for the analysis. […]

[2] = Phase I study, safety and tolerability; format: in vivo, healthy male and female subjects; settings: healthy subjects, IV
Experimental: as §1, §2
The following procedures were performed and recorded at screening: • Collect blood samples for serology testing, hematology evaluation (including CBC, prothrombin time and international normalized ratio [PT/INR], partial thromboplastin time [PTT], free hemoglobin, haptoglobin, and reticulocyte count), and comprehensive metabolic panel • Collect urine for UA (including urine microscopy) and for drugs-of-abuse screen • Perform β-HCG serum pregnancy test (female subjects only) • Calculate CrCl and BMI • Assess vital signs • Perform 12-lead ECG • Perform complete physical examination • Assess prior medications • Record medical and surgical history • Record any spontaneously reported AE or SAE between signing of informed consent and Day —1 for subjects who comply with all screening processes […]

[3] = Assay for NXL-104 and related substances (reverse phase gradient HPLC, UV 195 nm) on stored samples; format: physicochemical; settings: vial at 25° C./60% RH
Experimental: Assay for NXL-104 and Related Substances
NXL-104 and related substances in compositions comprising trans-7-oxo-6-(sulphooxy)-1,6-diazabicyclo[3,2,1]octane-2-carboxamide sodium salt were determined by a reverse phase gradient HPLC method with UV detection at 195 nm.
(§3) The following parameters were used for analysis:
(§4) Column: Inertsil ODS-3, 250 mm×4.6 mm, 5 μm
Mobile Phase A: 100 mM KH2PO4 Solution
Mobile Phase B: Acetonitrile: Water, [50:50 (v:v)]
(§5) Column Temperature: 25° C.
Autosampler Temperature: 5° C.
(§6) Detector/Setting: UV/195 nm
Run Time: about 25 minutes
Injector Washing Solution: Acetonitrile:Water, [10:90 (v:v)]
Approximate relative retention times (RRT) values for trans-7-oxo-6-(sulphooxy)-1,6-diazabicyclo[3,2,1]octane-2-carboxamide sodium salt and disulfate were 1.00 and 0.37.
The stability of amorphous trans-7-oxo-6-(sulphooxy)-1,6-diazabicyclo[3,2,1]octane-2-carboxamide sodium salt stored in a vial stored at 25° C. with a relative humidity of 60% (25° C./60% RH) was evaluated using the NXL-104 assay described above.
NXL-104 and related substances were measured according to the assay described in Example 6.

[4] = Decarbonyl degradation product of NXL-104 (reverse phase gradient HPLC, UV 195 nm); format: physicochemical; settings: vial at 25° C./60% RH
Experimental: The decarbonyl degradation product of trans-7-oxo-6-(sulphooxy)-1,6-diazabicyclo[3,2,1]octane-2-carboxamide sodium salt was determined by a reverse phase gradient HPLC method with UV detection at 195 nm.
as §3, §4
Mobile Phase A: Deionized Water
Mobile Phase B: 50 mM KH2PO4 solution: Acetonitrile, [50:50 (v:v)]
as §5, §6
Run Time (Approximate): 35 minutes
Injector Washing Solution: Acetonitrile:Water, [50:50 (v:v)] (Recommended)
Approximate relative retention time (RRT) for decarbonyl was 0.17.

[5] = pH of stability samples; format: physicochemical; settings: vial at 25° C./60% RH
[6] = Behaviour of crystalline forms in humid atmosphere; format: physicochemical
Text: The invention also relates to processes for making a dihydrate form of the sodium salt of (1R,2S,5R)-7-oxo-6-sulphooxy-1,6-diazabicyclo[3.2.1]octane-2-carboxamide called Form III. In exemplary embodiments, crystals of Form II are suspended in water, and the suspension is then left to evaporate slowly in a humid atmosphere. Crystals can also been obtained by trituration of crystals of Form II in water or in an alkanol-water mixture, or by conversion, in a humid atmosphere, of the anhydrous Form I and Form IV to the monohydrated Form II and then to the dihydrated Form III.

[7] = Treatment 600 mg Ceftaroline fosamil
[8] = Treatment 600 mg NXL-104 + Ceftaroline fosamil 600 mg
[9] = both sexes, human, plasma, iv, 600 mg, Treatment 600 mg Ceftaroline fosamil
[10] = both sexes, human, plasma, iv, 600 mg, Treatment 600 mg Ceftaroline fosamil, read-out: AUC0-inf
[11] = both sexes, human, plasma, iv, 600 mg, Treatment 600 mg Ceftaroline fosamil, read-out: Cmax
[12] = both sexes, human, plasma, iv, 600 mg, Treatment 600 mg NXL-104 + Ceftaroline fosamil 600 mg
[13] = both sexes, human, plasma, iv, 600 mg, Treatment 600 mg NXL-104 + Ceftaroline fosamil 600 mg, read-out: AUC0-inf
[14] = both sexes, human, plasma, iv, 600 mg, Treatment 600 mg NXL-104 + Ceftaroline fosamil 600 mg, read-out: Cmax
[15] = both sexes, human, plasma, iv, Treatment 600 mg Ceftaroline fosamil, read-out: Tmax

Structure (SMILES): CCO/N=C(\C(=O)N[C@H](C(=O)[O-])[C@@H]1NC(C(=O)[O-])=C(Sc2nc(-c3cc[n+](C)cc3)cs2)CS1)c1nsc(N)n1.[H+] [Ceftaroline M-1]
AUC(0-inf) [1, 7]: 16.42 µg·h/mL
Cmax [1, 7]: 3.29 µg/mL
T1/2 [1, 7]: 3.75 h
Tmax [1, 7]: 1.08 h
AUC(0-inf) [1, 8]: 15.78 µg·h/mL
Cmax [1, 8]: 3.21 µg/mL
T1/2 [1, 8]: 3.78 h
Tmax [1, 8]: 1.04 h

Structure (SMILES): CCO/N=C(\C(=O)N[C@@H]1C(=O)N2C(C(=O)[O-])=C(Sc3nc(-c4cc[n+](C)cc4)cs3)CS[C@H]12)c1nsc(NP(=O)(O)O)n1 [ceftaroline fosamil, (6R,7R)-7-{(2Z)-2-(ethoxyimino)-2-[5-(phosphonoamino)-1,2,4-thiadiazol-3-yl]acetamido}-3-{[4-(1-methylpyridin-1-ium-4-yl)-1,3-thiazol-2-yl]sulfanyl}-8-oxo-5-thia-1-azabicyclo[4.2.0]oct-2-ene-2-carboxylate]
pharmacokinetic interaction between ceftaroline fosamil and NXL-104 [1]: no pharmacokinetic interactions
half-life [1, 9]: 0.084 h
AUC(0-inf) [1, 10]: 2.17 µg·h/mL
Cmax [1, 11]: 2.11 µg/mL
half-life [1, 12]: 0.055 h
AUC(0-inf) [1, 13]: 2.16 µg·h/mL
Cmax [1, 14]: 2.37 µg/mL
Tmax [1, 15]: 0.67 h
safety [2]: no safety concerns

Structure (SMILES): CCO/N=C(\C(=O)N[C@@H]1C(=O)N2C(C(=O)[O-])=C(Sc3nc(-c4cc[n+](C)cc4)cs3)CS[C@H]12)c1nsc(N)n1 [Ceftaroline]
half-life [1, 9]: 2.51 h
AUC(0-inf) [1, 10]: 61 µg·h/mL
Cmax [1, 11]: 24.8 µg/mL
half-life [1, 12]: 2.47 h
AUC(0-inf) [1, 13]: 60 µg·h/mL
Cmax [1, 14]: 26.7 µg/mL
Tmax [1, 15]: 1 h

Structure (SMILES): NC(=O)[C@@H]1CC[C@@H]2CN1C(=O)N2OS(=O)(=O)[O-].[Na+] [Form III, trans-7-oxo-6-(sulphooxy)-1,6-diazabicyclo[3,2,1]octane-2-carboxamide sodium salt]
stability at higher humidities [6]: particularly stable

More lines, main results first:

Disulfate ([3]; 1 month): 0.19%
NXL-104 % ([3]; 1 month): 111.3%
Total Impurities, NXL-104 related ([3]; 1 month): 0.89%
Disulfate ([3]; 3 months): 0.17%
NXL-104 % ([3]; 3 months): 108.0%
Total Impurities, NXL-104 related ([3]; 3 months): 0.92%
Disulfate ([3]; 6 months): 0.17%
NXL-104 % ([3]; 6 months): 106.1%
Total Impurities, NXL-104 related ([3]; 6 months): 0.87%
Disulfate ([3]; Initial): 0.19%
NXL-104 % ([3]; Initial): 106.4%
Total Impurities, NXL-104 related ([3]; Initial): 0.90%
Decarbonyl ([4]; 1 month): 0.46%
Decarbonyl ([4]; 3 months): 0.48%
Decarbonyl ([4]; 6 months): 0.33%
Decarbonyl ([4]; Initial): 0.63%
pH ([5]; 1 month): 7.3
pH ([5]; 3 months): 7.2
pH ([5]; 6 months): 7.3
pH ([5]; Initial): 7.0
Structure (SMILES): NC(=O)[C@@H]1CC[C@@H]2CN1C(=O)N2OS(=O)(=O)[O-].[Na+] [amorphous NXL-104, trans-7-oxo-6-(sulphooxy)-1,6-diazabicyclo[3,2,1]octane-2-carboxamide sodium salt]

pharmacokinetic interaction between ceftaroline fosamil and NXL-104 [1]: no pharmacokinetic interactions
half-life [1, 12]: 1.63 h
AUC(0-inf) [1, 13]: 51.2 µg·h/mL
Cmax [1, 14]: 29.1 µg/mL
half-life ([1]; both sexes, human, plasma, iv, 600 mg, Treatment 600 mg NXL-104): 1.64 h
AUC(0-inf) ([1]; both sexes, human, plasma, iv, 600 mg, Treatment 600 mg NXL-104, read-out: AUC0-inf): 51.9 µg·h/mL
Cmax ([1]; both sexes, human, plasma, iv, 600 mg, Treatment 600 mg NXL-104, read-out: Cmax): 29.5 µg/mL
Tmax ([1]; both sexes, human, plasma, iv, Treatment 600 mg NXL-104, read-out: Tmax): 1 h
Structure (SMILES): NC(=O)[C@@H]1CC[C@@H]2CN1C(=O)N2OS(=O)(=O)[O-].[Na+] [NXL-104, trans-7-oxo-6-(sulphooxy)-1,6-diazabicyclo[3,2,1]octane-2-carboxamide sodium salt]
safety [2]: no safety concerns

Source: patent US8835455B2, “Crystalline forms of trans-7-oxo-6-(sulphooxy)-1,6-diazabicyclo[3,2,1]octane-2-carboxamide sodium salt” (Forest Laboratories Holdings Limited, priority 2009, dated 2014)
